According to ChEMBL document CHEMBL1143417, “Roles of P-glycoprotein, Bcrp, and Mrp2 in biliary excretion of spiramycin in mice” (Antimicrob Agents Chemother, 2007):

How the values were obtained:
[1] = Drug level in C57BL/6 mouse bile at 1 uM administered through single-pass liver perfusion for 15 mins coinfused with Pgp and Bcrp inhibitor GW918; assay type: ADME, tissue-based; conditions: in vivo, 0.25 h
[2] = Drug excretion in C57BL/6 mouse assessed as drug recovery in bile at 1 uM administered through single-pass liver perfusion for 15 mins coinfused with Pgp and Bcrp inhibitor GW918 relative to total liver drug content at the end of infusion; assay type: ADME, tissue-based; parameters: scale not given: the % may be the effect or the level left; conditions: in vivo, 0.25 h
Mus musculus [3] = assay: Drug excretion in Bcrp gene knockout C57BL/6 mouse assessed as drug recovery in outflow perfusate and bile at 1 uM administered through single-pass liver perfusion for 15 mins; assay type: ADME, organism-based; conditions: in vivo, 0.25 h
Mus musculus [4] = assay: Drug excretion in C57BL/6 mouse assessed as drug recovery in outflow perfusate and bile at 1 uM administered through single-pass liver perfusion for 15 mins; assay type: ADME, organism-based; conditions: in vivo, other, 0.25 h
[5] = Drug level in Bcrp gene knockout C57BL/6 mouse bile at 1 uM administered through single-pass liver perfusion for 15 mins; assay type: ADME, tissue-based; conditions: in vivo, 0.25 h
[6] = Drug excretion in C57BL/6 mouse assessed as drug recovery in bile at 1 uM administered through single-pass liver perfusion for 15 mins relative to total liver drug content at the end of infusion; assay type: ADME, tissue-based; conditions: in vivo, 0.25 h
[7] = Drug excretion in Mrp2 gene knockout C57BL/6 mouse assessed as drug recovery in bile at 1 uM administered through single-pass liver perfusion for 15 mins relative to total liver drug content at the end of infusion; assay type: ADME, tissue-based; conditions: in vivo, 0.25 h
Mus musculus [8] = assay: Drug excretion in Bcrp gene knockout C57BL/6 mouse assessed as drug recovery in outflow perfusate at 1 uM administered through single-pass liver perfusion for 15 mins relative to total liver drug content at the end of infusion; assay type: ADME, organism-based; conditions: in vivo, 0.25 h
Mus musculus [9] = assay: Drug excretion in Bcrp gene knockout C57BL/6 mouse assessed as drug recovery in outflow perfusate at 1 uM administered through single-pass liver perfusion for 15 mins coinfused with Pgp and Bcrp inhibitor GW918 relative to total liver drug content at the end of infusion; assay type: ADME, organism-based; parameters: scale not given: the % may be the effect or the level left; conditions: in vivo, 0.25 h
[10] = Drug level in Bcrp gene knockout C57BL/6 mouse bile at 1 uM administered through single-pass liver perfusion for 15 mins coinfused with Pgp and Bcrp inhibitor GW918; assay type: ADME, tissue-based; conditions: in vivo, 0.25 h
[11] = Drug excretion in Mrp2 gene knockout C57BL/6 mouse assessed as drug recovery in bile at 1 uM administered through single-pass liver perfusion for 15 mins coinfused with Pgp and Bcrp inhibitor GW918 relative to total liver drug content at the end of infusion; assay type: ADME, tissue-based; parameters: scale not given: the % may be the effect or the level left; conditions: in vivo, 0.25 h
Mus musculus [12] = assay: Drug excretion in C57BL/6 mouse assessed as drug recovery in outflow perfusate at 1 uM administered through single-pass liver perfusion for 15 mins coinfused with Pgp and Bcrp inhibitor GW918 relative to total liver drug content at the end of infusion; assay type: ADME, organism-based; parameters: scale not given: the % may be the effect or the level left; conditions: in vivo, 0.25 h
Mus musculus [13] = assay: Hepatic uptake clearance in C57BL/6 mouse at 1 uM administered through single-pass liver perfusion for 15 mins; assay type: ADME, organism-based; conditions: in vivo, 0.25 h
Mus musculus [14] = assay: Hepatic uptake clearance in C57BL/6 mouse at 1 uM administered through single-pass liver perfusion for 15 mins coinfused with Pgp and Bcrp inhibitor GW918; assay type: ADME, organism-based; conditions: in vivo, 0.25 h
Mus musculus [15] = assay: Hepatic uptake clearance in Mrp2 gene knockout C57BL/6 mouse at 1 uM administered through single-pass liver perfusion for 15 mins coinfused with Pgp and Bcrp inhibitor GW918; assay type: ADME, organism-based; conditions: in vivo, 0.25 h
[16] = Drug excretion in Bcrp gene knockout C57BL/6 mouse assessed as drug recovery in bile at 1 uM administered through single-pass liver perfusion for 15 mins relative to total liver drug content at the end of infusion; assay type: ADME, tissue-based; conditions: in vivo, 0.25 h
Mus musculus [17] = assay: Drug excretion in Mrp2 gene knockout C57BL/6 mouse assessed as drug recovery in outflow perfusate at 1 uM administered through single-pass liver perfusion for 15 mins coinfused with Pgp and Bcrp inhibitor GW918 relative to total liver drug content at the end of infusion; assay type: ADME, organism-based; parameters: scale not given: the % may be the effect or the level left; conditions: in vivo, 0.25 h
Mus musculus [18] = assay: Drug excretion in Mrp2 gene knockout C57BL/6 mouse assessed as drug recovery in outflow perfusate at 1 uM administered through single-pass liver perfusion for 15 mins relative to total liver drug content at the end of infusion; assay type: ADME, organism-based; conditions: in vivo, 0.25 h
Mus musculus [19] = assay: Hepatic uptake clearance in Mrp2 gene knockout C57BL/6 mouse at 1 uM administered through single-pass liver perfusion for 15 mins; assay type: ADME, organism-based; conditions: in vivo, 0.25 h
Mus musculus [20] = assay: Drug excretion in Mrp2 gene knockout C57BL/6 mouse assessed as drug recovery in outflow perfusate and bile at 1 uM administered through single-pass liver perfusion for 15 mins; assay type: ADME, organism-based; conditions: in vivo, 0.25 h
Mus musculus [21] = assay: Hepatic uptake clearance in Bcrp gene knockout C57BL/6 mouse at 1 uM administered through single-pass liver perfusion for 15 mins; assay type: ADME, organism-based; conditions: in vivo, 0.25 h
[22] = Drug excretion in Bcrp gene knockout C57BL/6 mouse assessed as drug recovery in bile at 1 uM administered through single-pass liver perfusion for 15 mins coinfused with Pgp and Bcrp inhibitor GW918 relative to total liver drug content at the end of infusion; assay type: ADME, tissue-based; parameters: scale not given: the % may be the effect or the level left; conditions: in vivo, 0.25 h
Mus musculus [23] = assay: Hepatic uptake clearance in Bcrp gene knockout C57BL/6 mouse at 1 uM administered through single-pass liver perfusion for 15 mins coinfused with Pgp and Bcrp inhibitor GW918; assay type: ADME, organism-based; conditions: in vivo, 0.25 h
[24] = Drug level in Mrp2 gene knockout C57BL/6 mouse bile at 1 uM administered through single-pass liver perfusion for 15 mins coinfused with Pgp and Bcrp inhibitor GW918; assay type: ADME, tissue-based; conditions: in vivo, 0.25 h
[25] = Drug level in Mrp2 gene knockout C57BL/6 mouse bile at 1 uM administered through single-pass liver perfusion for 15 mins; assay type: ADME, tissue-based; conditions: in vivo, 0.25 h
Mus musculus [26] = assay: Drug excretion in C57BL/6 mouse assessed as drug recovery in outflow perfusate at 1 uM administered through single-pass liver perfusion for 15 mins relative to total liver drug content at the end of infusion; assay type: ADME, organism-based; conditions: in vivo, 0.25 h
[27] = Drug level in C57BL/6 mouse bile at 1 uM administered through single-pass liver perfusion for 15 mins; assay type: ADME, tissue-based; conditions: in vivo, 0.25 h

## SPIRAMYCIN
[1]
  Drug uptake: 7.82 µg/mL
[2]
  Activity: 4.36%
Mus musculus [3]
  Activity: 86.5 %ID
Mus musculus [4]
  Activity: 90.5 %ID
[5]
  Drug uptake: 19.1 µg/mL
[6]
  Activity: 9.15%
[7]
  Activity: 1.21%
Mus musculus [8]
  Activity: 28.1%
Mus musculus [9]
  Activity: 25.2%
[10]
  Drug uptake: 14 µg/mL
[11]
  Activity: 0.58%
Mus musculus [12]
  Activity: 34.1%
Mus musculus [13]
  CLup: 4.63 mL/min
Mus musculus [14]
  CLup: 4.64 mL/min
Mus musculus [15]
  CLup: 4.7 mL/min
[16]
  Activity: 14.1%
Mus musculus [17]
  Activity: 24%
Mus musculus [18]
  Activity: 29.5%
Mus musculus [19]
  CLup: 5.15 mL/min
Mus musculus [20]
  Activity: 82.4 %ID
Mus musculus [21]
  CLup: 4.55 mL/min
[22]
  Activity: 8.28%
Mus musculus [23]
  CLup: 5.03 mL/min
[24]
  Drug uptake: 1.77 µg/mL
[25]
  Drug uptake: 3.45 µg/mL
Mus musculus [26]
  Activity: 32.5%
[27]
  Drug uptake: 8.65 µg/mL
